Measured values reported in patent publication US20240181007A1, “COMPOSITIONS AND METHODS FOR TREATING PULMONARY HYPERTENSION” (Acceleron Pharma Inc., priority 2021, published 2024).

Tested on: ZSF1-SU rats
Assay: HFpEF induced PH rat model, ZSF1 rats challenged with semaxanib (Example 10)
Type: in vivo
Conditions: relative to ZSF1-SU/PBS
Description: The effects of an ActRIIA-mFc fusion polypeptide (SEQ ID NO: 56) was examined in a rat model of left ventricular diastolic dysfunction (also referred to as HEpEF) group 2 (subgroup 2.2) pulmonary hypertension (PH). In this model, ZSF1-Lepr^faLepr^cp/Crl rats were challenged with semaxanib to induce HFpEF-PH(l).
Forty ZSF1 Lepr^faLepr^cp/Crl male […] (8 wks old) and five lean rats were subcutaneously administered with a single dose of semaxanib (100 mg/kg) at day 0, and five lean rats were included as normal control. Six weeks after semaxanib (SU5416) treatment, Thirty-six ZSF1 Lepr^faLepr^cp/Crl rats were randomized into four groups: i) nine rats were injected subcutaneously with vehicle control (phosphate buffered saline (PBS)), twice weekly for 8 weeks starting from day 42 after semaxanib treatment, “ZSF1-SU/PBS”; a ii) ten rats were injected subcutaneously with ActRIIA-mFc at a dose of 1 mg/kg twice weekly for 8 weeks starting from day 42 after semaxanib treatment, “ZSF1-SU/ActRIIA-mFc 1 mpk”: a iii) nine rats were injected subcutaneously with ActRIIA-mFc at a dose of 3 mg/kg twice weekly for 8 weeks starting from day 42 after semaxanib treatment, “ZSF1-SU/ActRIIA-mFc 3 mpk”; and a iv) eight rats were injected subcutaneously with ActRIIA-mFc at a dose of 10 mg/kg twice weekly for 8 weeks starting from day 42 after semaxanib treatment, “ZSF1-SU/ActRIIA-mFc 10 mpk”. At the end of the study, echocardiography and pressure-volume catheter were performed to measure left and right ventricular remodeling and functional changes before animals were euthanized for heart and lung collection. Hearts and lungs of each rat were weighed, fixed in 10% formalin, embedded in paraffin, and sectioned for Masson's trichrome stain to assess fibrosis. Serum and urine samples were collected at the end of the study.
Rats were fasted overnight to measure fasting blood glucose levels at week 14 (before treatments started), week 18 (4 weeks after treatments), and week 22, and oral glucose tolerance test was performed at week 22. Blood glucose levels were measured with a glucometer after bleeding tail vein with a 27G needle. To prepare oral glucose tolerance test, 40% glucose stock solution run through a filter to sterilize it. After fasting overnight, rat body weight was measured. Blood glucose level was detected. Then 40% glucose solution was administered via oral gavage according to body weight (2 g/kg). Blood glucose levels were measured at 30, 60, 90, 120 minutes.
Prior to euthanization, in vivo cardiac function was assessed by transthoracic echocardiography (Acuson P300, 18 MHz linear transducer; Siemens) in lightly anesthetized rats as described (2). From left ventricle short axis view, M-mode echocardiogram was acquired to measure interventricular septal thickness at end diastole (IVSd), left ventricular posterior wall thickness at end diastole (LVPWd), left ventricular end diastolic diameter (LVEDD), and left ventricular end systolic diameter (LVESD). Left ventricular mass (LVM) was assessed by the equation: 1.05 [(LVEDD+LVPTD+IVSd)^3-LVEDD^3]. Early diastolic filling peak velocity (E), early diastolic mitral annular velocity (E′), and isovolumetric relaxation time (IVRT) were measured from the medial or septal wall at the mitral valve level from tissue Doppler image. LV diastolic function was assessed by measuring the E/E′ ratio and IVRT. Pulmonary arterial acceleration time (PAAT), a parameter of right ventricular function, was also measured.
Fourteen weeks after semaxanib treatment, rats were anesthetized with ketamine (100 mg/kg) and xylazine (5 mg/kg) at the end of the experiment to evaluate cardiac and pulmonary hemodynamics. The respiration was supported by a small animal ventilator. Thoracotomy was made through 4-5 intercostal space, and the heart was exposed. A pressure-volume catheter (2.0-Fr, SPR-869, Millar Instruments, Houston, TX, USA) was be inserted into the left ventricle and right ventricle from the apex. […]

[1] = 1 mpk, 3 mpk and 10 mpk, FIGS. 41-43

For “ActRIIA-mFc: ActRIIA-mFc fusion polypeptide (SEQ ID NO: 56); extracellular domain fused to murine IgG2a Fc domain with a linker”, the fasting blood glucose [1] was “significantly reduced fasting blood glucose”, the “glucose level in urine” value [1] was “decreased glucose level in urine” and the “glucose tolerance (oral glucose tolerance test)” value [1] was “improved glucose tolerance”. For the same substance, the “E/E′ ratio” value (3 mpk and 10 mpk s.c. twice weekly for 8 weeks from day 42 after semaxanib, FIG. 29) was “reduced E/E′ ratio”, the IVRT (3 mpk and 10 mpk s.c. twice weekly for 8 weeks from day 42 after semaxanib, FIG. 30) was “decreased IVRT” and the RVFWT (3 mpk and 10 mpk s.c. twice weekly for 8 weeks from day 42 after semaxanib, FIG. 34) was “significantly reduced elevated RVFWT”. For the same substance, the PAAT (3 mpk and 10 mpk s.c. twice weekly for 8 weeks from day 42 after semaxanib, FIG. 35) was “reduced PAAT”, the RVSP (3 mpk and 10 mpk s.c. twice weekly for 8 weeks from day 42 after semaxanib, FIG. 36) was “reduced elevated RVSP” and the “left heart remodeling (HW/TL, IVSd, LVM)” value (3 mpk and 10 mpk s.c. twice weekly for 8 weeks from day 42 after semaxanib, FIGS. 31-33) was “significantly reduced left heart remodeling”. The “fibrosis in LV” value (s.c. twice weekly for 8 weeks, dose not given, FIG. 37) was “significantly reduced the increased fibrosis”, the “fibrosis in RV” value (s.c. twice weekly for 8 weeks, dose not given, FIG. 38) was “significantly reduced the increased fibrosis” and the fibrosis in lung (s.c. twice weekly for 8 weeks, dose not given, FIG. 39) was “significantly reduced the increased fibrosis”.
